A short description of one series: in vivo. More on the design: species or system guinea pigs. The settings on record: guinea pig; for half-life: t1/2 (hr). The text has this: (§1) Male guinea pigs weighing 800-1000 grams (Harlan-Sprague-Dawley, San Diego, Calif.) were used for efficacy studies. Male guinea pigs (Harlan-Sprague-Dawley) weighing 400-600 grams were used for pharmacokinetic studies. The animals were housed, 1 per cage, in a temperature-controlled environment with alternating 12-hour periods of light and darkness and given unrestricted access to food and water. Prior to each study, animals were habituated to the environment for at least 7 days. Female CDI mice (Sprague-Dawley) weighing 22-28 grams were used for determination of maximum tolerated dose (MTD). All animals were maintained in accordance with guidelines of the Committee on Care and Use of Laboratory Animals of the Institute of Laboratory Animal Resources, National Research Council.
The in vivo pharmacokinetics of the MVL formulations of bupivacaine and free bupivacaine hydrochloride were compared following a single 1 mL intracutaneous dose of the MVL formulation containing 1.0 percent (w/v) of bupivacaine, or a dose of 0.5 percent (w/v) of unencapsulated bupivacaine hydrochloride to a group of guinea pigs. […] For the animals that received free bupivacaine hydrochloride, samples were collected at 0 and 30 minutes, and 1, 3, 6 and 9 hours following injection, while the animals that received the MVL formulations of bupivacaine were sampled 0, 6, 12, 18, 24, 48, and 72 hours following injection. At each time point, 3 or more animals were first anesthetized with halothane and then exanguinated by cardiac puncture. Serum samples were obtained by centrifugation of clotted whole blood. Skin was collected around the injection site with 3 cm margins, together with a 2-3 mm layer of underlying subcutaneous tissue. The skin and serum samples were kept frozen at −20° C. until analysis.
The amount of total bupivacaine remaining in the injection site was obtained by mincing the tissue followed by in toto homogenization in water using a Polytron homogenizer (Brinkman, Littau, Switzerland). Bupivacaine was extracted from the homogenate and analyzed by HPLC using a previously published method (Le Guevello et al., J. Chromatography 622:284-290, 1993). Bupivacaine concentration in serum was determined by extraction followed by HPLC (Le Guevello et al., supra). Tetracaine spiked into each sample before extraction was used as an internal standard. The limit of detection of the assay was 20 ng/mL.
Pharmacokinetic data obtained from the samples were analyzed using a noncompartmental model (WinNonlin software, Scientific Consulting, Inc., Apex, N.C.). Parameters calculated were the drug amount remaining at the injection site, the area under the “amount vs. time” curve (AUC), and drug half-life (t1/2,). In addition to the AUC and half-life, peak concentration (Cmax) was also reported for serum bupivacaine pharmacokinetics.
One way analysis of variance (ANOVA) was used to separately determine dose dependency for the different drug formulations and route of administration (via MVL or free drug) as well as for comparison between formulations. Student-Newman-Keuls tests were used on all ANOVA analyses.

Another series deals with mice. The series can be described thus: Determination of maximum tolerated dose (MTD), subcutaneous test. The class given is in vivo. Conditions: highest dose at which none of the animals experienced systemic toxicity.
Text: as §1
Determination of maximum tolerated dose (MTD) was done in mice using a subcutaneous test known in the art (R. H. de long et al., Anesthesiology 54:177-81, 1981). Groups of three mice each were given injections of either 780 or 980 mg per kg body weight of the above-described MVL formulation containing bupivacaine sulfate as two divided doses of 500 μl each (total 1.0 mL volume). The doses were administered in rapid sequence into each flank. Control groups of 3 mice each received one of the test doses as a single dose of 10, 20, 30 or 50 mg/kg body weight of unencapsulated bupivacaine hydrochloride. […]

Structures can show the parent of a compound that is named as a salt.

Data on 1 molecule can be found in patent US8834921B2, “Sustained-release liposomal anesthetic compositions” (Pacira Pharmaceuticals, Inc., priority 1997, dated 2014).

Turning to `CCCCN1CCCCC1C(=O)Nc1c(C)cccc1C` (centres unmarked) [Bupivacaine hydrochloride], in “in vivo”, the “AUC (mg * hr), Skin” value came out at 2.9 mg·h and the “tolerability of the intracutaneous dose” value is listed as “unable to tolerate”. In addition, in the series “in vivo” (male), the AUC came to 21200 ng·h/mL; the Cmax worked out at 6500 ng/mL; the “Peak Amount (mg), Skin” value was 3.8 mg. The molecule further had a half-life in the series “in vivo” (male, Serum) of 2.1 h. The molecule also had a half-life in “in vivo” (male, Skin) of 1.3 h. The “maximum tolerated dose (MTD)” value in the series with mice is listed as “about 20 mg/kg of body weight”.
